Data: patent US10730886B2, “Compound having effect of inhibiting platelet aggregation and salt thereof, and composition for preventing or treating thrombotic diseases, containing same” (SHIN POONG PHARMACEUTICAL CO., LTD., priority 2015, dated 2020)
Like-named read-outs stand apart in the source and are kept apart here.

Tests used:
[1] = system: Human Platelet Rich Plasma (PRP); assay: Shear stress-induced platelet aggregation inhibition in human platelet rich plasma (PRP), cone-plate viscometer; format: cell-based; details: for inhibition at 25 µM: Homo sapiens, Platelet
Procedure: 1-1. Measurement of Platelet Aggregation Inhibitory Effect Using Human Platelet Rich Plasma (PRP)
Blood was collected from the veins of healthy male volunteers who had not taken any medication for more than 2 weeks. All related studies were conducted under the approval of the Seoul National University Institutional Review Board (IRB No. 1305/001-016). During the whole process of study the use of glass containers or glass pipettes was avoided, and the experiments were performed at room temperature. To separate platelet rich plasma (PRP), the blood was collected with 3.2% sodium citrate as an anticoagulant. The whole blood was centrifuged at 150 g for 15 minutes to obtain the supernatant (PRP), and the residue was centrifuged at 2,000 g for 20 minutes to obtain platelet poor plasma (PPP). The number of platelets of the PRP thus obtained was counted with an optical microscope using a hemacytometer. PRP was diluted with PPP so as to include 3×10^8 platelets per 1 ml, and then used in the experiments. PRP was put on a cone-plate viscometer (RotoVisco 1, Thermo Fischer Scientific, USA), and shear stress was applied to the PRP at 37° C. for 3 minutes at a shear rate of 10,800 s^−1. In order to evaluate candidate substances, prior to the induction of platelet aggregation, 598.8 μl of PRP was treated with 1.2 μl of 25 μM candidate substance and incubated at 37° C. for 3 minutes using a thermomixer. After applying the shear stress, 20 μl of PRP was fixed in 280 μl of a suspension buffer containing 0.5% glutaraldehyde (134 mM NaCl, 2.9 mM KCl, 1.0 mM MgCl2.6H2O, 10.0 mM HEPES, 5.0 mM dextrose, 12.0 mM NaHCO3, 0.34 mM Na2HPO4, 0.3% BSA, pH 7.4). Then, the number of single platelets in the suspension was counted using a hemacytometer. The degree of inhibition by the candidate substance was calculated according to the following formula (1). The degree of inhibition was determined by the method described below. No shear stress-applied group served as a control, and only shear stress-applied group served as positive control. Degree of inhibition (%)=[(1−A/B)×100]/[(1−A/C)×100] Formula 1
A: Number of single platelets in the shear stress-applied sample after treatment with candidate substance
B: Number of single platelets in the control group with no shear stress applied
C: Number of single platelets in the positive control group with only shear stress applied

[2] = system: collagen-induced platelet aggregation, Human PRP; assay: Collagen-induced platelet aggregation in human PRP (lumi-aggregometer); format: cell-based; details: collagen 2-5 μg/ml
Procedure: To investigate whether the candidate substance has inhibition selectivity for shear-stress-induced platelet aggregation, which is by a physical stimulus, […] experiment was conducted by activating platelets with physiological agonists—i.e., thrombin, collagen and ADP—to study the inhibitory effect of the candidate substance.
Human PRP (598.8 μl) was treated with 1.2 μl of the candidate substance per concentration (25, 100, 250 μM) and reacted at 37° C. for 3 minutes using a thermomixer. Then, PRP (495 μl) was put in the aggregometer cuvette and preincubated for 1 minute, followed by treatment with platelet aggregation-inducing reagent, thrombin (0.6-0.8 U/ml), collagen (2-5 μg/ml), or ADP (adenosine diphosphate, 15-20 μM) at the minimum concentration causing maximum aggregation. The degree of aggregation of the platelets was measured by a turbidity change using a lumi-aggregometer (Chrono-Log Co., USA). The turbidity of the PRP was considered as 0%, and the turbidity of the PPP was considered as 100%. During the measurement, the reaction mixture was continuously stirred at 1,000 rpm with a silicone-coated magnetic stir bar.

plasma = assay: Plasma coagulation time, Prothrombin Time (PT); format: biochemical; details: plasma treated 3 minutes
Procedure: In order to separate plasma, blood was collected with 3.2% sodium citrate as an anticoagulant. Whole blood was centrifuged at 2000 g for 20 minutes to obtain plasma. After treating the plasma with the test substances for 3 minutes, plasma coagulation time was measured. For plasma coagulation time, Activated Partial Thromboplastin Time (aPTT) and Prothrombin Time (PT) were measured using BBL® Fibrometer (Becton Dickinson, Cockeysville, Md.). For measurement of aPTT, the plasma was treated with aPTT reagents in fibrometer cup and reacted at 37° C. for 3 min. After the reaction, CaCl2 was added and blood coagulation time was measured immediately. For the measurement of PT, PT reagent was added to warmed plasma, and blood coagulation time was measured immediately. DTI, known to prolong plasma coagulation time, was used as a control.

Sprague-Dawley rats = assay: Bleeding side effect (tail bleeding time) after single oral administration; format: in vivo; details: rat, tail cut 1 hour after administration
Procedure: Male Sprague-Dawley rats (250 to 300 g) were fasted overnight and then were orally administered with the candidate substances at each concentration. After 1 hour, the rats were anesthetized by intraperitoneal injection of urethane (1.25 g/kg). The 3 mm portion of the tail tip of the rats was cut and carefully wiped every 30 seconds. Bleeding time was measured in […] until no more blood was drawn, and when the bleeding lasted longer than 30 minutes, the bleeding time was recorded as 30 minutes.

[3] = 0.05 h, human PRP, 25 μM, shear rate 10,800 s^-1, 3 min, read-out: Degree of inhibition (%, Mean ± SEM)
[4] = Table 1 summary bins, concentration and matrix not given, read-out: Inhibitory effect of shear stress-induced platelet aggregation
[5] = human PRP, 25 μM, shear rate 10,800 s^-1, 3 min

Row | Structure (SMILES) | inhibition at 25 µM [1, 3] | inhibition at 25 µM [1, 4] | Degree of platelet aggregation (%, Mean ± SEM) ([2]; 25 μM) | Degree of platelet aggregation (%, Mean ± SEM) ([2]; 100 μM) | Degree of platelet aggregation (%, Mean ± SEM) ([2]; 250 μM) | plasma coagulation time - PT, Time (plasma; 25 μM) | plasma coagulation time - PT, Time (plasma; 100 μM) | plasma coagulation time - PT, Time (plasma; 250 μM) | Bleeding time (Sprague-Dawley rats; 25 μM (so in the source)) | Bleeding time (Sprague-Dawley rats; 100 μM (so in the source)) | Degree of inhibition (%, Mean ± SEM) [1, 5]
1 | COc1cc(C(=O)Oc2c(C)occc2=O)ccc1O [Example 14, 2-Methyl-4-oxo-4H-pyran-3-yl 4-hydroxy-3-methoxybenzoate] | ≥ 30% | ≥ 30% | 82.0 ± 1.7% | 80.0 ± 1.7% | 92.0 ± 2.0% | 10.1 ± 0.3 s | 10.1 ± 0.0 s | 11.1 ± 0.1 s | 6.7 ± 0.9 min | 6.3 ± 0.6 min | 
2 | CCc1occc(=O)c1OC(=O)c1ccc(O)c(OC)c1 [Example 13, 2-Ethyl-4-oxo-4H-pyran-3-yl 4-hydroxy-3-methoxybenzoate] | 20 to 30% | 20 to 30% | 90.0 ± 3.0% | 79.5 ± 0.5% | 85.5 ± 3.5% | 11.0 ± 0.3 s | 10.6 ± 0.2 s | 10.8 ± 0.3 s | 6.5 ± 0.6 min | 7.2 ± 0.3 min | 26 ± 6%
3 | O=C(c1cc(O)ccc1O)N1CCc2sccc2C1 [Example 20, (6,7-Dihydrothieno[3,2-c]pyridin-5(4H)-yl)(2,5-dihydroxyphenyl)methanone] | ≥ 30% | ≥ 30% | 82.3 ± 5.8% | 81.3 ± 3.5% | 87.7 ± 2.0% | 10.8 ± 0.4 s | 10.2 ± 0.4 s | 11.2 ± 0.4 s | 6.7 ± 0.6 min | 7.7 ± 0.4 min | 
4 | COc1ccc(NC(=O)c2ccc(O)c(OC)c2)c([N+](=O)[O-])c1 [Example 15, 4-Hydroxy-3-methoxy-N-(4-methoxy-2-nitrophenyl)benzamide] | 20 to 30% | 20 to 30% | 86.0 ± 0.0% | 84.5 ± 4.5% | 83.5 ± 3.5% | 10.7 ± 0.0 s | 10.6 ± 0.2 s | 10.9 ± 0.1 s | 7.3 ± 0.7 min | 6.2 ± 0.6 min | 24 ± 8%
5 | O=C(c1ccc(O)c(O)c1)N1CCc2sccc2C1 [Example 1, (6,7-Dihydrothieno[3,2-c]pyridin-5(4H)-yl)(3,4-dihydroxyphenyl)methanone] | 20 to 30% | 20 to 30% | 84.3 ± 3.5% | 80.7 ± 10.2% | 84.3 ± 3.8% | 10.8 ± 0.5 s | 10.7 ± 0.8 s | 11.0 ± 0.1 s | 6.0 ± 0.9 min | 6.5 ± 0.9 min | 23 ± 2%
6 | O=C(c1cc(O)ccc1O)N1CCC(c2noc3ccc(F)cc23)CC1 [Example 23, (2,5-Dihydroxyphenyl)(4-(5-fluorobenzo[d]isoxazol-3-yl)piperidin-1-yl)methanone] | 20 to 30% | 20 to 30% | 82.0 ± 5.0% | 84.5 ± 4.5% | 83.5 ± 2.5% | 10.3 ± 0.1 s | 10.7 ± 0.2 s | 10.8 ± 0.3 s |  |  | 28 ± 3%
7 | COc1cc(C(=O)N2CCc3sccc3C2)ccc1O [Example 12, (6,7-Dihydrothieno[3,2-c]pyridin-5(4H)-yl)(4-hydroxy-3-methoxyphenyl)methanone] | 20 to 30% | 20 to 30% | 83.0 ± 4.0% | 80.0 ± 2.0% | 87.5 ± 3.5% | 10.9 ± 0.1 s | 11.0 ± 0.5 s | 10.5 ± 0.3 s | 6.3 ± 0.6 min | 6.5 ± 0.3 min | 25 ± 6%
